One series relates to Staph. Aur. Description: antimicrobial activity, minimal inhibitory concentration, Staph. Aur. The series is classed as cell-based. As to the method: (§1) The antimicrobial activity of some compounds according to the present invention was measured and the results are shown in the following Tables. The activity is indicated as the minimal inhibitory concentration in μg/ml.
The subject of another series is B. Cereus. As to the kind of experiment: antimicrobial activity, minimal inhibitory concentration, B. Cereus. The series is classed as cell-based. To be noted: Bacillus cereus. On the procedure:
as §1

In a further series the test system is Salm. Typh. Description: antimicrobial activity, minimal inhibitory concentration, Salm. Typh. The series is classed as cell-based. To be noted: read-out: minimal inhibitory concentration. On the procedure: as §1
The subject of series [1] is E. Coli. Description: antimicrobial activity, minimal inhibitory concentration, E. Coli. The series is classed as cell-based. To be noted: Escherichia coli. As to the method: as §1
Another series deals with Cand. Alb. As to the kind of experiment: antimicrobial activity, minimal inhibitory concentration, Cand. Alb. The series is classed as cell-based. As to the method: as §1
In the next series the test system is Trichophyt. Rubrum. As to the kind of experiment: antimicrobial activity, minimal inhibitory concentration, Trichophyt. Rubrum. The series is classed as cell-based. As to the method:
as §1

Another series relates to Crypt. Neof. Description: antimicrobial activity, minimal inhibitory concentration, Crypt. Neof. The series is classed as cell-based. As to the method: as §1
The test system of the next series is Mycoplasma gallisept. Description: antimicrobial activity, minimal inhibitory concentration, Mycoplasma gallisept. The series is classed as cell-based. On the procedure:
as §1

In a further series the test system is Proteus. Description: antimicrobial activity, minimal inhibitory concentration, Proteus. The series is classed as cell-based. On the procedure:
as §1

A further series deals with Pseud. Aur. Description: antimicrobial activity, minimal inhibitory concentration, Pseud. Aur. The series is classed as cell-based. As to the method:
as §1

The subject of another series is Aspergillus Niger. Description: antimicrobial activity, minimal inhibitory concentration, Aspergillus Niger. The series is classed as cell-based. As to the method: as §1
Series [2] concerns E. Coli. As to the kind of experiment: Systemic E. Coli infection in mice. The series is classed as in vivo. As to the method:
(§2) Some compounds of general formula Id were tested also in vivo.

The next series relates to St. aur. Description: Systemic St. aur infection in mice. The series is classed as in vivo. As to the method:
as §2

For series [3], the system named is E. Coli. As to the kind of experiment: U. Tract infections in mice (E. Coli). The series is classed as in vivo. To be noted: U. Tract infections (E. Coli), 2,5 mg × 10 days. On the procedure: as §2
A short description of another series: in vivo. To be noted: mouse, po.
Series [4] is described as follows: Acute oral LD50 in chicks. To be noted: chicken, in vivo.
A short description of series [5]: growth promotion experiment with male turkeys for 4 weeks. The series is classed as in vivo. To be noted: P<0.001. From the text:
The results were statistically significant (P<0.001).

In a further series the test system is B. Subtilis. As to the kind of experiment: antimicrobial activity, minimal inhibitory concentration, B. Subtilis. The series is classed as cell-based. To be noted: Bacillus subtilis. As to the method:
as §1

Another series in a line: Acute oral LD50 in mice. To be noted: mouse, in vivo.

In brackets after ≈: the same amount, converted by molar mass.

In general, LD50 refers to the dose expected to kill half of the subjects tested.

For `CCCNC(=NO)c1c[n+]([O-])c2ccccc2[n+]1[O-]` [Example 20, 2-(propylamino)-carboxamidoxime-quinoxaline-1,4-dioxide], the MIC in the series with Staph. Aur. is 10 µg/mL (≈ 38.1 µM); against B. Cereus, 25 µg/mL (≈ 95.3 µM); in the series on Salm. Typh., 25 µg/mL (≈ 95.3 µM); against E. Coli [1] it was 25 µg/mL (≈ 95.3 µM); in the series with Cand. Alb., 11 to 100 µg/mL (≈ 41.9 to 381 µM); in the series on Trichophyt. Rubrum, 11 to 100 µg/mL (≈ 41.9 to 381 µM). The MIC against Crypt. Neof. was 11 to 100 µg/mL (≈ 41.9 to 381 µM); with Mycoplasma gallisept, 25 to 50 µg/mL (≈ 95.3 to 191 µM); in the series on Proteus, 11 to 100 µg/mL (≈ 41.9 to 381 µM); against Pseud. Aur., 10 µg/mL (≈ 38.1 µM); against Aspergillus Niger it was 11 to 100 µg/mL (≈ 41.9 to 381 µM). Moreover, the Protection entry in the series with E. Coli [2] (systemic E. Coli infection, 2,5 mg × 2 per day) is given as “+ (indicates protection >80%)”; in the series with St. aur (systemic St. aur infection, 5 mg × 2 per day) it was “- (indicates protection <50%)”; with E. Coli [3] it was “+ (indicates protection >80%)”.

Consider `[O-][n+]1cc(C(=NO)NN2CCOCC2)[n+]([O-])c2ccccc21` [Example 25, 2-(N-morpholinoamino)-carboxamidoxime-quinoxaline-1,4-dioxide], for which the LD50 in the series “in vivo” came to 1240 mg/kg; in [4], 428 mg/kg.

`CN1CCN(C(=NO)c2c[n+]([O-])c3ccccc3[n+]2[O-])CC1` [Example 26a, 2-(4'-methyl-piperazino)-carboxaldoxime-quinoxaline-1,4-dioxide]: the “increase in weight gain” value in series [5] (50 g/ton in the feed) was found to be 15.6%. Also, the LD50 in the series “in vivo” was 1240 mg/kg; in [4], 400 mg/kg.

For `CCOC(=O)NNC(=NO)c1c[n+]([O-])c2ccccc2[n+]1[O-]` [Example 35, 2-(carbazinic acid ethyl ester)-carboxaldoxime-quinoxaline-1,4-dioxide], the MIC in the series on Staph. Aur. was 10 µg/mL (≈ 32.5 µM); against B. Subtilis, 10 µg/mL (≈ 32.5 µM); with Salm. Typh., 10 to 25 µg/mL (≈ 32.5 to 81.4 µM); with E. Coli [1] it was 40 to 50 µg/mL (≈ 130 to 163 µM); with Mycoplasma gallisept, 10 to 25 µg/mL (≈ 32.5 to 81.4 µM). Further, the Protection entry in the series with E. Coli [2] (systemic E. Coli infection, 1,25 mg × 2 per day) was “+ (indicates protection >80%)”; with St. aur (systemic St. aur infection, 2,5 mg × 2 per day), “+ (indicates protection >80%)”; with E. Coli [3] it was “+ (indicates protection >80%)”. Also, the figures for the “increase in weight gain” value in [5] (30 g/ton in the feed), in series [5] (50 g/ton in the feed) and in series [5] (75 g/ton in the feed) were 18.7%, 18.5% and 16%, respectively. Also, the LD50 in the series “Acute oral LD50 in mice” stood at 4950 mg/kg; in series [4] it was 1500 mg/kg.
